Laboratory results from PubChem BioAssay AID1963436 (Molecular Pharmacology Branch, DTP, NCI, 2024).
pIC50: −log10 of the molar value.

Test system: OVCAR-5 complex spheroid (HUVEC/MSC), viability % T/C
Assay: Anticancer human tumor OVCAR-5 cell line growth inhibition [Asc];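 further: spheroids exposed to agents for 7 days before readout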;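 on viability, T/C: 100% = DMSO vehicle-treated wells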
Conditions: for pIC50: curve of first compound; for viability, T/C: stronger effect = lower value
How it was run: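 Tumor cells were grown as multicellular spheroids with stromal HUVEC and mesenchymal stem cells and treated singly or in combination. Concentrations fell in half-log steps from the clinical Cmax, or from 10 microM where none was known.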

[1] = second compound 0.1 µM, first compound 0.0316 µM
[2] = second compound 0.1 µM, first compound 0.1 µM
[3] = second compound 0.1 µM, first compound 0.316 µM
[4] = second compound 0.1 µM, first compound 1 µM
[5] = second compound 0.1 µM, first compound 3.16 µM
[6] = second compound 0.1 µM, first compound 10 µM
[7] = second compound 0.316 µM, first compound 0.0316 µM
[8] = second compound 0.316 µM, first compound 0.1 µM
[9] = second compound 0.316 µM, first compound 0.316 µM
[10] = second compound 0.316 µM, first compound 1 µM
[11] = second compound 0.316 µM, first compound 3.16 µM
[12] = second compound 0.316 µM, first compound 10 µM
[13] = second compound 1 µM, first compound 0.0316 µM
[14] = second compound 1 µM, first compound 0.1 µM
[15] = second compound 1 µM, first compound 0.316 µM
[16] = second compound 1 µM, first compound 1 µM
[17] = second compound 1 µM, first compound 3.16 µM
[18] = second compound 1 µM, first compound 10 µM
[19] = second compound 3.16 µM, first compound 0.0316 µM
[20] = second compound 3.16 µM, first compound 0.1 µM
[21] = second compound 3.16 µM, first compound 0.316 µM
[22] = second compound 3.16 µM, first compound 1 µM
[23] = second compound 3.16 µM, first compound 3.16 µM
[24] = second compound 3.16 µM, first compound 10 µM
[25] = second compound 10 µM, first compound 0.0316 µM
[26] = second compound 10 µM, first compound 0.1 µM
[27] = second compound 10 µM, first compound 0.316 µM
[28] = second compound 10 µM, first compound 1 µM
[29] = second compound 10 µM, first compound 3.16 µM
[30] = second compound 10 µM, first compound 10 µM
[31] = second compound 0.03 µM, first compound 0.0316 µM
[32] = second compound 0.03 µM, first compound 0.1 µM
[33] = second compound 0.03 µM, first compound 0.316 µM
[34] = second compound 0.03 µM, first compound 1 µM
[35] = second compound 0.03 µM, first compound 3.16 µM
[36] = second compound 0.03 µM, first compound 10 µM
[37] = second compound 0.0949 µM, first compound 0.0316 µM
[38] = second compound 0.0949 µM, first compound 0.1 µM
[39] = second compound 0.0949 µM, first compound 0.316 µM
[40] = second compound 0.0949 µM, first compound 1 µM
[41] = second compound 0.0949 µM, first compound 3.16 µM
[42] = second compound 0.0949 µM, first compound 10 µM
[43] = second compound 0.3 µM, first compound 0.0316 µM
[44] = second compound 0.3 µM, first compound 0.1 µM
[45] = second compound 0.3 µM, first compound 0.316 µM
[46] = second compound 0.3 µM, first compound 1 µM
[47] = second compound 0.3 µM, first compound 3.16 µM
[48] = second compound 0.3 µM, first compound 10 µM
[49] = second compound 0.949 µM, first compound 0.0316 µM
[50] = second compound 0.949 µM, first compound 0.1 µM
[51] = second compound 0.949 µM, first compound 0.316 µM
[52] = second compound 0.949 µM, first compound 1 µM
[53] = second compound 0.949 µM, first compound 3.16 µM
[54] = second compound 0.949 µM, first compound 10 µM
[55] = second compound 3 µM, first compound 0.0316 µM
[56] = second compound 3 µM, first compound 0.1 µM
[57] = second compound 3 µM, first compound 0.316 µM
[58] = second compound 3 µM, first compound 1 µM
[59] = second compound 3 µM, first compound 3.16 µM
[60] = second compound 3 µM, first compound 10 µM

C#Cc1c(F)ccc2cc(O)cc(-c3ncc4c(N5CC6CCC(C5)N6)nc(OCC56CCCN5CC(F)C6)nc4c3F)c12 (stereo not given) + Cc1c(S(C)(=O)=O)c(-c2cc(F)cc(N3CCN(c4ccc(NS(=O)(=O)c5ccc(NC(CCN6CCC(C(=O)OCCCP(=O)(O)O)CC6)CSc6ccccc6)c(S(=O)(=O)C(F)(F)F)c5)cc4)CC3)c2)c(-c2ccc(Cl)cc2)n1C(C)C
pIC50 (second compound 0.1 µM): 5.27 | pIC50 (second compound 0.316 µM): 5.35 | pIC50 (second compound 1 µM): 5.43 | pIC50 (second compound 3.16 µM): 5.55 | pIC50 (second compound 10 µM): 5.43 | viability, T/C [1]: 96.7% | viability, T/C [2]: 107% | viability, T/C [3]: 102% | viability, T/C [4]: 78.7% | viability, T/C [5]: 69.3% | viability, T/C [6]: 30.3% | viability, T/C [7]: 91.8% | viability, T/C [8]: 98.2% | viability, T/C [9]: 87.2% | viability, T/C [10]: 80.1% | viability, T/C [11]: 61.1% | viability, T/C [12]: 24.5% | viability, T/C [13]: 89.7% | viability, T/C [14]: 107% | viability, T/C [15]: 90.1% | viability, T/C [16]: 75.9% | viability, T/C [17]: 56.3% | viability, T/C [18]: 21.7% | viability, T/C [19]: 84.9% | viability, T/C [20]: 99.9% | viability, T/C [21]: 96.1% | viability, T/C [22]: 69% | viability, T/C [23]: 49.8% | viability, T/C [24]: 12.9% | viability, T/C [25]: 133% | viability, T/C [26]: 116% | viability, T/C [27]: 118% | viability, T/C [28]: 88.5% | viability, T/C [29]: 56.6% | viability, T/C [30]: 12.7%

C#Cc1c(F)ccc2cc(O)cc(-c3ncc4c(N5CC6CCC(C5)N6)nc(OCC56CCCN5CC(F)C6)nc4c3F)c12 (stereo not given) + CCN1C(C(=O)NC23CCC(C(=O)O)(CC2)CC3)C(c2cccc(Cl)c2F)C2(C(=O)Nc3cc(Cl)ccc32)C12CCCCC2
pIC50 (second compound 0.03 µM): 5.17 | pIC50 (second compound 0.0949 µM): 5.17 | pIC50 (second compound 0.3 µM): 5.17 | pIC50 (second compound 0.949 µM): 5.19 | pIC50 (second compound 3 µM): 5.27 | viability, T/C [31]: 108% | viability, T/C [32]: 108% | viability, T/C [33]: 83.3% | viability, T/C [34]: 78% | viability, T/C [35]: 73% | viability, T/C [36]: 39.1% | viability, T/C [37]: 106% | viability, T/C [38]: 105% | viability, T/C [39]: 91.1% | viability, T/C [40]: 88.8% | viability, T/C [41]: 66.5% | viability, T/C [42]: 40.8% | viability, T/C [43]: 101% | viability, T/C [44]: 107% | viability, T/C [45]: 106% | viability, T/C [46]: 74.8% | viability, T/C [47]: 66.2% | viability, T/C [48]: 42.4% | viability, T/C [49]: 99% | viability, T/C [50]: 109% | viability, T/C [51]: 102% | viability, T/C [52]: 84.4% | viability, T/C [53]: 65.5% | viability, T/C [54]: 41.3% | viability, T/C [55]: 104% | viability, T/C [56]: 107% | viability, T/C [57]: 107% | viability, T/C [58]: 79.5% | viability, T/C [59]: 61.2% | viability, T/C [60]: 39.6%

O=C(c1cc(Cc2n[nH]c(=O)c3ccccc23)ccc1F)N1CCN(C(=O)C2CC2)CC1 + Cc1c(S(C)(=O)=O)c(-c2cc(F)cc(N3CCN(c4ccc(NS(=O)(=O)c5ccc(NC(CCN6CCC(C(=O)OCCCP(=O)(O)O)CC6)CSc6ccccc6)c(S(=O)(=O)C(F)(F)F)c5)cc4)CC3)c2)c(-c2ccc(Cl)cc2)n1C(C)C
pIC50 (second compound 0.1 µM): < 5.00 | pIC50 (second compound 0.316 µM): < 5.00 | pIC50 (second compound 1 µM): < 5.00 | pIC50 (second compound 3.16 µM): < 5.00 | pIC50 (second compound 10 µM): < 5.00 | viability, T/C [1]: 103% | viability, T/C [2]: 101% | viability, T/C [3]: 90.8% | viability, T/C [4]: 82.6% | viability, T/C [5]: 91.5% | viability, T/C [6]: 76.1% | viability, T/C [7]: 95.8% | viability, T/C [8]: 95.6% | viability, T/C [9]: 84.8% | viability, T/C [10]: 79.6% | viability, T/C [11]: 83.6% | viability, T/C [12]: 78.5% | viability, T/C [13]: 92.2% | viability, T/C [14]: 89.8% | viability, T/C [15]: 88% | viability, T/C [16]: 81.4% | viability, T/C [17]: 78.4% | viability, T/C [18]: 62.6% | viability, T/C [19]: 86.2% | viability, T/C [20]: 94.1% | viability, T/C [21]: 82.3% | viability, T/C [22]: 75.4% | viability, T/C [23]: 73.4% | viability, T/C [24]: 64.7% | viability, T/C [25]: 130% | viability, T/C [26]: 128% | viability, T/C [27]: 114% | viability, T/C [28]: 95.5% | viability, T/C [29]: 94.1% | viability, T/C [30]: 73.6%

C=CC(=O)N1CCN(c2nc(=O)n(-c3c(C)ccnc3C(C)C)c3nc(-c4c(O)cccc4F)c(F)cc23)C(C)C1 (stereo not given) + CCN1C(C(=O)NC23CCC(C(=O)O)(CC2)CC3)C(c2cccc(Cl)c2F)C2(C(=O)Nc3cc(Cl)ccc32)C12CCCCC2
pIC50 (second compound 0.03 µM): < 5.00 | pIC50 (second compound 0.0949 µM): < 5.00 | pIC50 (second compound 0.3 µM): < 5.00 | pIC50 (second compound 0.949 µM): < 5.00 | pIC50 (second compound 3 µM): < 5.00 | viability, T/C [31]: 112% | viability, T/C [32]: 111% | viability, T/C [33]: 120% | viability, T/C [34]: 125% | viability, T/C [35]: 113% | viability, T/C [36]: 104% | viability, T/C [37]: 110% | viability, T/C [38]: 111% | viability, T/C [39]: 106% | viability, T/C [40]: 112% | viability, T/C [41]: 116% | viability, T/C [42]: 92.1% | viability, T/C [43]: 105% | viability, T/C [44]: 119% | viability, T/C [45]: 112% | viability, T/C [46]: 121% | viability, T/C [47]: 118% | viability, T/C [48]: 116% | viability, T/C [49]: 109% | viability, T/C [50]: 118% | viability, T/C [51]: 102% | viability, T/C [52]: 103% | viability, T/C [53]: 109% | viability, T/C [54]: 106% | viability, T/C [55]: 116% | viability, T/C [56]: 118% | viability, T/C [57]: 122% | viability, T/C [58]: 111% | viability, T/C [59]: 111% | viability, T/C [60]: 111%
